From patent publication US10519152B2, “Compounds and their use in treating cancer” (AstraZeneca AB, priority 2017, dated 2019)

Target: T1, recombinant human Estrogen Receptor alpha ligand binding domain, residues 307-554 (ER alpha-LBD (GST)) (Homo sapiens, UniProt P03372)
T1 construct: made in house
T1 sequence (P03372 307-554): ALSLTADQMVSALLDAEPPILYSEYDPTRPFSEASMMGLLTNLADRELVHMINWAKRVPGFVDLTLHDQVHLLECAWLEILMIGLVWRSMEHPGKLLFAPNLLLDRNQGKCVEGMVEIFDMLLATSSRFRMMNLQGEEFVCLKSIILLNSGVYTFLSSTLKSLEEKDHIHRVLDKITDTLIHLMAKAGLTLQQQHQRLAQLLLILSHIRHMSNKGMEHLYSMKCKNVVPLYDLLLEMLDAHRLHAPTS
Assay: ERα binding assay (LanthaScreen TR-FRET competition)
Details: TR-FRET competition with Fluormone ES2 tracer, 4 hours at room temperature; single experiment or average of two or more

Going from Cc1ncsc1-c1ccc(CNC(=O)[C@@H]2C[C@@H](O)CN2C(=O)[C@@H](NC(=O)CCCOc2ccc(COc3cc(F)c([C@@H]4c5[nH]c6ccccc6c5C[C@@H](C)N4CC(C)(C)F)c(F)c3)nc2)C(C)(C)C)cc1 [Example 161, (2S,4R)-1-((S)-2-(4-((6-((3,5-Difluoro-4-((1R,3R)-2-(2-fluoro-2-methylpropyl)-3-methyl-2,3,4,9-tetrahydro-1H-pyrido[3,4-b]indol-1-yl)phenoxy)methyl)pyridin-3-yl)oxy)butanamido)-3,3-dimethylbutanoyl)-4-hydroxy-N-(4-(4-methylthiazol-5-yl)benzyl)pyrrolidine-2-carboxamide] to Cc1ncsc1-c1ccc(CNC(=O)[C@@H]2C[C@@H](O)CN2C(=O)[C@@H](NC(=O)CCCOc2cccc(COc3cc(F)c([C@@H]4c5[nH]c6ccccc6c5C[C@@H](C)N4CC(C)(C)F)c(F)c3)n2)C(C)(C)C)cc1 [Example 162, (2S,4R)-1-((S)-2-(4-((6-((3,5-Difluoro-4-((1R,3R)-2-(2-fluoro-2-methylpropyl)-3-methyl-2,3,4,9-tetrahydro-1H-pyrido[3,4-b]indol-1-yl)phenoxy)methyl)pyridin-2-yl)oxy)butanamido)-3,3-dimethylbutanoyl)-4-hydroxy-N-(4-(4-methylthiazol-5-yl)benzyl)pyrrolidine-2-carboxamide], the IC50 rises from 0.7 nM to 1.1 nM (1.6-fold).

Compared with Cc1ncsc1-c1ccc(CNC(=O)[C@@H]2C[C@@H](O)CN2C(=O)[C@@H](NC(=O)COCCOCCCCCOc2cnc([C@@H]3c4[nH]c5ccccc5c4C[C@@H](C)N3CC(C)(F)F)c(F)c2)C(C)(C)C)cc1 [Example 164, (2S,4R)-1-((S)-2-(2-(2-((5-((6-((1S,3R)-2-(2,2-Difluoropropyl)-3-methyl-2,3,4,9-tetrahydro-1H-pyrido[3,4-b]indol-1-yl)-5-fluoropyridin-3-yl)oxy)pentyl)oxy)ethoxy)acetamido)-3,3-dimethylbutanoyl)-4-hydroxy-N-(4-(4-methylthiazol-5-yl)benzyl)pyrrolidine-2-carboxamide], Cc1ncsc1-c1ccc(CNC(=O)[C@@H]2C[C@@H](O)CN2C(=O)[C@@H](NC(=O)COCCOCCCCCOc2cnc([C@@H]3c4[nH]c5ccccc5c4C[C@@H](C)N3CC(F)(F)F)c(F)c2)C(C)(C)C)cc1 [Example 165, (2S,4R)-1-((S)-2-(2-(2-((5-((5-Fluoro-6-((1S,3R)-3-methyl-2-(2,2,2-trifluoroethyl)-2,3,4,9-tetrahydro-1H-pyrido[3,4-b]indol-1-yl)pyridin-3-yl)oxy)pentyl)oxy)ethoxy)acetamido)-3,3-dimethylbutanoyl)-4-hydroxy-N-(4-(4-methylthiazol-5-yl)benzyl)pyrrolidine-2-carboxamide] is 1.7-fold higher in IC50: 6.6 nM for the first, 11.4 nM for the second. The first is the more potent here.

Cc1ncsc1-c1ccc(CNC(=O)[C@@H]2C[C@@H](O)CN2C(=O)[C@@H](NC(=O)COCCOCCCCCOc2cc(F)c([C@@H]3c4[nH]c5ccccc5c4C[C@@H](C)N3CC(C)(F)F)c(F)c2)C(C)(C)C)cc1 [Example 166, (2S,4R)-1-((S)-2-(2-(2-((5-(4-((1R,3R)-2-(2,2-Difluoropropyl)-3-methyl-2,3,4,9-tetrahydro-1H-pyrido[3,4-b]indol-1-yl)-3,5-difluorophenoxy)pentyl)oxy)ethoxy)acetamido)-3,3-dimethylbutanoyl)-4-hydroxy-N-(4-(4-methylthiazol-5-yl)benzyl)pyrrolidine-2-carboxamide] and Cc1ncsc1-c1ccc(CNC(=O)[C@@H]2C[C@@H](O)CN2C(=O)[C@@H](NC(=O)COCCOCCCCCOc2cc(F)c([C@@H]3c4[nH]c5ccccc5c4C[C@@H](C)N3CC(F)F)c(F)c2)C(C)(C)C)cc1 [Example 167, (2S,4R)-1-((S)-2-(2-(2-((5-(4-((1R,3R)-2-(2,2-Difluoroethyl)-3-methyl-2,3,4,9-tetrahydro-1H-pyrido[3,4-b]indol-1-yl)-3,5-difluorophenoxy)pentyl)oxy)ethoxy)acetamido)-3,3-dimethylbutanoyl)-4-hydroxy-N-(4-(4-methylthiazol-5-yl)benzyl)pyrrolidine-2-carboxamide] are within 1.5-fold of each other in IC50: 0.8 nM for the first, 0.9 nM for the second.
